# Assay: Binding affinity against opioid receptor delta 1 using [3H]naltrindole as radioligand in guinea pig brain membranes.
row,SMILES,Ki [nM]
1,c1cc2c(cc1-c1nnn[nH]1)[C@@]13CCCC[C@H]1[C@@H](C2)N(CC1CCC1)CC3 [3-(1'H-Tetrazol-5'-yl)-N-cyclobutylmethylmorphinan],> 10000
2,O=C1c2ccc(O)cc2[C@@]23CCCC[C@H]2[C@@H]1N(Cc1ccc2ccccc2c1)CC3 [3-Hydroxy-10-keto-N-(2-naphthylmethyl)morphinan],> 10000
3,N#Cc1ccc2c(c1)[C@@]13CCCC[C@H]1[C@@H](C2)N(CC1CCC1)CC3 [3-Cyano-N-cyclobutylmethylmorphinan],1900
4,CN1CC[C@]23CCCC[C@H]2[C@H]1Cc1ccc(CN)cc13 [3-Aminomethyl-N-methylmorphinan],2500
5,NC(=O)c1ccc2c(c1)[C@@]13CCCC[C@H]1[C@@H](C2)N(CC1CCC1)CC3 [3-Carboxamido-N-cyclobutylmethylmorphinan],4
6,N#Cc1ccc2c(c1)[C@@]13CCCC[C@H]1[C@@H](C2=O)N(CC1CCC1)CC3 [3-Cyano-10-keto-N-cyclobutylmethylmorphinan],> 10000
7,NCc1ccc2c(c1)[C@@]13CCCC[C@H]1[C@@H](C2)N(CC1CCC1)CC3 [3-Aminomethyl-N-cyclobutylmethylmorphinan],410
8,COCCN1CC[C@]23CCCC[C@H]2[C@H]1C(=O)c1ccc(O)cc13 [3-Hydroxy-10-keto-N-(2-methoxyethyl)morphinan],> 10000
9,O=C1c2ccc(O)cc2[C@@]23CCCC[C@H]2[C@@H]1N(CCF)CC3 [3-Hydroxy-10-keto-N-(2-fluoroethyl)morphinan],> 10000
10,CN1CC[C@]23CCCC[C@H]2[C@H]1Cc1ccc(C(N)=O)cc13 [3-Carboxamido-N-methylmorphinan],13
11,"CC(C)=CCN1CC[C@]23CCCC[C@H]2[C@H]1C(=O)c1ccc(O)cc13 [3-Hydroxy-10-keto-N-(3,3-dimethylallyl)morphinan]",1100
12,O=C(O)c1ccc2c(c1)[C@@]13CCCC[C@H]1[C@@H](C2=O)N(CC1CCC1)CC3 [3-Carboxyl-10-keto-N-cyclobutylmethyl morphinan],800
13,CN1CC[C@]23CCCC[C@H]2[C@H]1Cc1ccc(C#N)cc13 [3-Cyano-N-methylmorphinan],> 1000
14,O=C1c2ccc(OCC3CCC3)cc2[C@@]23CCCC[C@H]2[C@@H]1N(CC1CCC1)CC3 [3-O-Cyclobutylmethyl-10-keto-N-cyclobutylmethylmorphinan],> 10000
15,O=C1c2ccc(O)cc2[C@@]23CCCC[C@H]2[C@@H]1N(CC1CC1)CC3 [3-Hydroxy-10-keto-N-cyclopropylmethylmorphinan],150
16,COc1ccc2c(c1)[C@@]13CCCC[C@H]1[C@H](NCC3)C2=O [3-Methoxy normorphinan],16
17,O=C1c2ccc(O)cc2[C@@]23CCCC[C@H]2[C@@H]1NCC3 [3-hydroxy-normorphinan],> 10000
18,C#CCOc1ccc2c(c1)[C@@]13CCCC[C@H]1[C@@H](C2=O)N(CC#C)CC3 [3-O-Propargyl-10-keto-N-propargylmorphinan],> 10000
19,NC(=O)c1ccc2c(c1)[C@@]13CCCC[C@H]1[C@@H](C2)N(CC1CC1)CC3 [3-Carboxamido-N-cyclopropylmethylmorphinan],1
20,Nc1ccc2c(c1)[C@@]13CCCC[C@H]1[C@@H](C2=O)N(CC1CCC1)CC3 [3-Amino-10-keto-N-cyclobutylmethylmorphinan],600
21,NC(=O)c1ccc2c(c1)[C@@]13CCCC[C@H]1[C@@H](C2=O)N(CC1CCC1)CC3 [3-Carboxamido-10-keto-N-cyclobutylmethylmorphinan],50
22,CN1CC[C@]23CCCC[C@H]2[C@H]1C(=O)c1ccc(O)cc13 [3-Hydroxy-10-keto-N-methylmorphinan],1200
23,O=C1c2ccc(O)cc2[C@@]23CCCC[C@H]2[C@@H]1N(C[C@@H]1CCCO1)CC3 [3-Hydroxy-10-keto-N-(tetrahydrofuran-2-yl)methylmorphinan],1
24,O=C1c2ccc(-c3nnn[nH]3)cc2[C@@]23CCCC[C@H]2[C@@H]1N(CC1CCC1)CC3 [3-Tetrazolo-10-keto-N-cyclobutylmethylmorphinan],1800
25,CN1CC[C@]23CCCC[C@H]2[C@H]1Cc1ccc(-c2nnn[nH]2)cc13 [3-(1'H-Tetrazol-5'-yl)-N-methylmorphinan],> 10000

# — BindingDB's records for doi:10.1021/jm0304156 (Harvard Medical School, 2003)
